Read-outs that look alike come from different tables or passages of the source.
How the values were obtained:
[1] = cited from earlier work
[2] = for precipitation in liposomal dispersion after neutralization: 100 mg phospholipid/ml liposomes ca 30 nm in isotonic glycerol
Experimental: Visual assessment may be supported by comparing the transmission optical density (OD) measurements before and after the compound is added when the system is at equilibrium. […] The figures should be at least 80% of the initial transmission value of the blank dispersion which is used as a control. […] When the liposome dispersions are not sufficiently transparent the loading process can nevertheless be followed by e.g. using microscopy techniques to detect unassociated drug particles.
A first aqueous suspension comprising SUVs is prepared in a micro-fiuidizer. The dispersion contains 100 mg phospholipid/ml in isotonic glycerol solution.

[3] = control experiment without phospholipid: isotonic glycerol solution neutralized to pH 7.0; type: physicochemical
Experimental: In a control experiment 25 μl of the 100 mg phenytoin/ml solution in 1 M NaOH is added to 1.0 ml of isotonic glycerol solution to make up 2500 μg phenytoin/ml.

[4] = cited from earlier work; remark: listed apart in the source
[5] = cited from earlier work; remark: listed apart in the source
[6] = 5 mg drug/ml, neutralized to pH 7.0 with NaOH
[7] = 5 mg drug/ml in isotonic glycerol solution, neutralized to pH 7.0 with NaOH
[8] = 2.5 mg drug/ml in isotonic glycerol solution, neutralized to pH 7.0

Structure (SMILES) | precipitation in liposomal dispersion after neutralization [2, 6] | precipitation in control without lipid after neutralization [3, 7] | solubility at pH 1.2 [1] [μg/ml] | solubility in water at pH 7 [1] [μg/ml] | precipitation in control without lipid after neutralization [3, 8] | also measured
O=C1NC(=O)C(c2ccccc2)(c2ccccc2)N1 [Phenytoin sodium] | – | – | – | – | – | solubility at pH 10-pH13 ([1]; pH 10-pH13, according to Martindale): freely soluble
CN1C(=O)CN=C(c2ccccc2)c2cc(Cl)ccc21 [diazepam] | remain dear without diazepam precipitates | precipitates out | – | – | – | –
OCCN(CCO)c1nc(N2CCCCC2)c2nc(N(CCO)CCO)nc(N3CCCCC3)c2n1 [dipyridamole] | – | – | 1753 | 5 | precipitates | pKa [4]: 6.4; precipitation in liposomal dispersion after neutralization ([2]; 2.5 mg drug/ml, neutralized to pH 7.0): No precipitated dipyridamole is noticed
CC(=O)N1CCN(c2ccc(OCC3COC(Cn4ccnc4)(c4ccc(Cl)cc4Cl)O3)cc2)CC1 (centres unmarked) [ketoconazole] | no precipitated ketoconazole can be seen | precipitates | 2729 | 2 | – | –
O=C1NC(=O)C(c2ccccc2)(c2ccccc2)N1 [phenytoin] | – | – | – | 3.7 | precipitates | Log P oil/water [5]: 2.3; amount solubilized in the liposomes ([2]; pH 7): 2500 µg; solubility in water at pH 7 ([1]; listed as Phenytoin): 37 μg/ml

Reference: patent US20110244028A1, “METHOD OF SOLUBILIZING BIOLOGICALLY ACTIVE COMPOUNDS” (priority 2008, published 2011)
